From patent publication US20100184867A1, “USE OF ACTIVE AGENTS FOR STIMULATING THE EXPRESSION OF FN3K AND/OR FN3K RP FOR COMBATING AGEING OF THE SKIN” (CHANEL PARFUMS BEAUTE, priority 2007, published 2010)

Tested on: glycation of the extra-cellular matrix (ECM)
Assay: Glycation of the extra-cellular matrix (ECM) of fibroblasts: EFA content by dot blot and densitometric analysis
Type: cell-based, human
Conditions: 1 mg/ml
Protocol: Human normal fibroblasts were cultured at 37° C. in the presence of DMEM (Invitrogen) containing 10% of fetal bovine serum (Invitrogen) and 50 UI/ml of penicillin, 50 μg/ml of […] (Invitrogen) and 2 mM of glutamin. Collagen synthesis was stimulated by culturing cells in the presence of vitamin C at 20 μg/ml (Sigma) for 5 days. The cells were then washed with PBS and lysed by successive cycles of freezing and thawing.
Except for the controls, cell layers had previously been treated with Butea frondosa (at 0.02; 0.1 and 0.5%), which was prepared according to Example 1 or with a reference compound: aminoguanidin at 1 mg/ml (Sigma). The cells were then incubated in the presence of 0.1 mg/ml glucose. Each of the treatments was performed, in triplicate, for 15 days at 37° C. with 5% CO2.
At the end of the incubation period, ECM proteins (essentially collagen) were extracted, and the samples were then transferred onto a nitrocellulose membrane (Hybrond, ECL, Amersham) by means of a Milliblot dotblot (Millipore). All the controls were carried out in order to assess the specificity of the final response. No interference was observed. […]
The following table illustrates the effect of this treatment on glucose incorporation into macromolecules synthetised by fibroblasts. The presence of EFA was measured by dot blot analysis and densitometric analysis.

N=C(N)NN [Aminoguanidin, aminoguanidin]
Inhibition of EFA content compared to the control: 35%
EFA content relative to control (15 days, 0.1 mg/ml glucose, control 100%): 65%
